The values below come from patent US10865208B2, “ATG7 inhibitors and the uses thereof” (Millennium Pharmaceuticals, Inc., priority 2016, dated 2020).

Each structure is given as a SMILES string.

In general, IC50 refers to the concentration that gives 50% inhibition. For orientation: inhibition means the change of the read-out against control, counted positive when it falls.

This test concerns the target recombinant human His-ATG7 enzyme (Homo sapiens (Human), UniProt O95352). Description: ATG7 Enzyme Assay (HTRF/FRET, ATG3-GST and Flag-Gabarap). The format is biochemical. The note with it: for inhibition at 0.111 µM: Concentration 0.111 μM; for inhibition at 0.111 µM / inhibition at 0.123 µM: read-out: Percent Inhibition; for inhibition at 0.123 µM: Concentration 0.123 μM. The procedure, abridged:
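0.15 nM His-ATG7 was reacted with 5 nM ATG3-GST, 5 nM Flag-Gabarap and 10 μM ATP in HEPES pH 7.5 containing MgCl2, GSH and TCEP for 105 min at 24° C, then stopped with EDTA/KF. Eu-anti-Flag and anti-GST-APC HTRF was read after 2 h. Results are given as single-concentration % inhibition or IC50.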
On the technique in general: Time-resolved FRET reads energy transfer from a long-lived donor to a nearby acceptor.

Sequence of recombinant human His-ATG7 enzyme (O95352 whole entry): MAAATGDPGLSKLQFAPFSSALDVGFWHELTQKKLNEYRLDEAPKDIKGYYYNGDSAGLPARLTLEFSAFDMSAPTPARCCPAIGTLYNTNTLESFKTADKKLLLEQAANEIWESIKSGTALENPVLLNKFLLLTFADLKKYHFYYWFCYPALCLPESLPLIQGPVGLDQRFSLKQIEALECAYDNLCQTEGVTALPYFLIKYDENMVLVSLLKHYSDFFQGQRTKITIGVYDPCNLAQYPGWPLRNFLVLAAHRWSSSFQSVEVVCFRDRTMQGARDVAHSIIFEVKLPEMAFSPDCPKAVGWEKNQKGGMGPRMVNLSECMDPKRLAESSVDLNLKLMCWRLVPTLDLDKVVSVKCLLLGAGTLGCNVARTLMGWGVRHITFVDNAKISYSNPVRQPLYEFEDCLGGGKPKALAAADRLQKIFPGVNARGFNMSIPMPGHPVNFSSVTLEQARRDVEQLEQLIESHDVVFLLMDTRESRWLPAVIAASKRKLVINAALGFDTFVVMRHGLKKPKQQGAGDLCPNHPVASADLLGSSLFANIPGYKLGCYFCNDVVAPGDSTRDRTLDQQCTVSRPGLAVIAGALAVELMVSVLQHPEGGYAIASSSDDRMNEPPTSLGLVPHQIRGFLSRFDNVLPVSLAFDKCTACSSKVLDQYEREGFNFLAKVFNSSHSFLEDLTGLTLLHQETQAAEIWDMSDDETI

In the case of `Nc1ncnc2c1c(Sc1ccc(Cl)cn1)nn2[C@H]1C[C@H](O)[C@H](COS(N)(=O)=O)O1` [Compound I-222, [(2S,3S,5R)-5-{4-amino-3-[(5-chloropyridin-2-yl)sulfanyl]-1H-pyrazolo[3,4-d]pyrimidin-1-yl}-3-hydroxytetrahydrofuran-2-yl]methyl sulfamate], the half-inhibitory concentration (IC50) was 50 to 100 nM and the inhibition at 0.111 µM turned out to be 59%.

Regarding `Cc1ccccc1Sc1nn([C@@H]2O[C@H](COS(N)(=O)=O)[C@@H](O)[C@H]2O)c2ncnc(N)c12` [Compound I-74, [(2R,3S,4R,5R)-5-{4-amino-3-[(2-methylphenyl)sulfanyl]-1H-pyrazolo[3,4-d]pyrimidin-1-yl}-3,4-dihydroxytetrahydrofuran-2-yl]methyl sulfamate], the half-inhibitory concentration (IC50) was in the range of 50 to 100 nM and the inhibition at 0.123 µM turned out to be 61%.

Consider `Nc1ncnc2c1c(Sc1ccc([N+](=O)[O-])cn1)nn2[C@@H]1O[C@H](COS(N)(=O)=O)[C@@H](O)[C@@H]1F` [Compound I-111, [(2R,3R,4S,5R)-5-{4-amino-3-[(5-nitropyridin-2-yl)sulfanyl]-1H-pyrazolo[3,4-d]pyrimidin-1-yl}-4-fluoro-3-hydroxytetrahydrofuran-2-yl]methyl sulfamate], for which the IC50 lay in the range of 20 to 50 nM and the inhibition at 0.111 µM is 73%.

For `Nc1ncnc2c1c(Sc1ccc(Cl)cc1)nn2[C@@H]1O[C@H](COS(N)(=O)=O)[C@@H](O)[C@@H]1F` [Compound I-133, [(2R,3R,4S,5R)-5-{4-amino-3-[(4-chlorophenyl)sulfanyl]-1H-pyrazolo[3,4-d]pyrimidin-1-yl}-4-fluoro-3-hydroxytetrahydrofuran-2-yl]methyl sulfamate], the IC50 was 20 to 50 nM and the inhibition at 0.111 µM was determined as 67%.

For the molecule `Nc1ncnc2c1c(Sc1ccc(F)cc1)nn2[C@@H]1O[C@H](COS(N)(=O)=O)[C@@H](O)[C@@H]1F` [Compound I-126, [(2R,3R,4S,5R)-5-{4-amino-3-[(4-fluorophenyl)sulfanyl]-1H-pyrazolo[3,4-d]pyrimidin-1-yl}-4-fluoro-3-hydroxytetrahydrofuran-2-yl]methyl sulfamate], the IC50 was 20 to 50 nM and the inhibition at 0.111 µM was 71%.

As to `Nc1ncnc2c1c(SCc1ccccn1)nn2[C@@H]1O[C@H](COS(N)(=O)=O)[C@@H](O)[C@@H]1F` [Compound I-119, [(2R,3R,4S,5R)-5-{4-amino-3-[(pyridin-2-ylmethyl)sulfanyl]-1H-pyrazolo[3,4-d]pyrimidin-1-yl}-4-fluoro-3-hydroxytetrahydrofuran-2-yl]methyl sulfamate], the IC50 was 50 to 100 nM and the inhibition at 0.111 µM worked out at 65%.

Turning to `Nc1ncnc2c1c(Sc1cccc(F)c1)nn2[C@H]1C[C@H](O)[C@@H](COS(N)(=O)=O)O1` [Compound I-206, [(2R,3S,5R)-5-{4-amino-3-[(3-fluorophenyl)sulfanyl]-1H-pyrazolo[3,4-d]pyrimidin-1-yl}-3-hydroxytetrahydrofuran-2-yl]methyl sulfamate], the half-inhibitory concentration (IC50) is 100 to 500 nM and the inhibition at 0.111 µM came out at 44%.

For the molecule `COc1nn([C@@H]2O[C@H](COS(N)(=O)=O)[C@@H](O)[C@@H]2F)c2ncnc(N)c12` [Compound I-105, [(2R,3R,4S,5R)-5-(4-amino-3-methoxy-1H-pyrazolo[3,4-d]pyrimidin-1-yl)-4-fluoro-3-hydroxytetrahydrofuran-2-yl]methyl Sulfamate], the half-maximal inhibitory concentration (IC50) was in the range of 100 to 500 nM and the inhibition at 0.123 µM stood at 42%.

With `CCC(C)Sc1nn([C@@H]2O[C@H](COS(N)(=O)=O)[C@@H](O)[C@@H]2F)c2ncnc(N)c12` (mixture of isomers) [Compound I-136, [(2R,3R,4S,5R)-5-{4-amino-3-[(2R)-butan-2-ylsulfanyl]-1H-pyrazolo[3,4-d]pyrimidin-1-yl}-4-fluoro-3-hydroxytetrahydrofuran-2-yl]methyl sulfamate and [(2R,3R,4S,5R)-5-{4-amino-3-[(2S)-butan-2-ylsulfanyl]-1H-pyrazolo[3,4-d]pyrimidin-1-yl}-4-fluoro-3-hydroxytetrahydrofuran-2-yl]methyl sulfamate], the IC50 is 20 to 50 nM and the inhibition at 0.111 µM was 69%.
